Several values for one entry are separate records, joined by “and”; a condition that tells them apart may be missing. Identical values can stand only once.
Columns and labels:
SK-BR-3 [1] = assay: drug sensitivity score (DSS), CellTiter-Blue viability (DSS (AUC-based score)); higher = stronger viability inhibition; extreme values may be limits of the assay; conditions: incubation time: 72 h
Method: (§1)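 DSRT with the CellTiter-Blue (resazurin reduction) viability readout, fluorescence 560/590 nm, 72 h incubation. Plates were normalised to DMSO and benzethonium chloride controls. DSS is computed from the area under the fitted dose-response curve (5 or 9 concentrations).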

BT-549 = assay: as above; conditions: incubation time: 72 h
Method: as §1

MDA-MB-453 = assay: as above; conditions: incubation time: 72 h
Method: as §1

CAL-120 [2] = assay: as above; conditions: incubation time: 72 h
Method: as §1

CAL-85-1 = assay: as above; conditions: incubation time: 72 h
Method: as §1

MDA-MB-436 = assay: as above; conditions: incubation time: 72 h
Method: as §1

HCC1599 = assay: as above; conditions: incubation time: 72 h
Method: as §1

HCC1937 [3] = assay: as above; conditions: incubation time: 72 h
Method: as §1

CAL-148 [4] = assay: as above; conditions: incubation time: 72 h
Method: as §1

MDA-MB-468 [5] = assay: as above; conditions: incubation time: 72 h
Method: as §1

MFM-223 [6] = assay: as above; conditions: incubation time: 72 h
Method: as §1

BT-474 = assay: as above; conditions: incubation time: 72 h
Method: as §1

MDA-MB-231 = assay: as above; conditions: incubation time: 72 h
Method: as §1

CAL-51 = assay: as above; conditions: incubation time: 72 h
Method: as §1

HDQ-P1 [7] = assay: as above; conditions: incubation time: 72 h
Method: as §1

DU-4475 = assay: as above; conditions: incubation time: 72 h
Method: as §1

Hs578T [8] = assay: as above; conditions: incubation time: 72 h
Method: as §1

HCC1143 = assay: as above; conditions: incubation time: 72 h
Method: as §1

CAL-120 [9] = assay: normalised viability (% of control), CellTiter-Blue; higher = more viable cells (100 = DMSO, 0 = benzethonium chloride kill control); conditions: incubation time: 72 h
Procedure, shortened: (§2)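 After 72 h on compound-loaded 384-well plates, breast cancer cell lines received 2.5 µl CellTiter-Blue reagent for 2 h at 37 °C. Fluorescence at 560/590 nm was scaled per plate so that vehicle was 100 and a positive kill control was 0. The value stands for normalised viability at a single listed concentration of the series.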

HCC1937 [10] = assay: as above; conditions: incubation time: 72 h
Procedure, shortened: as §2

CAL-148 [11] = assay: as above; conditions: incubation time: 72 h
Procedure, shortened: as §2

MFM-223 [12] = assay: as above; conditions: incubation time: 72 h
Procedure, shortened: as §2

HDQ-P1 [13] = assay: as above; conditions: incubation time: 72 h
Procedure, shortened: as §2

Hs578T [14] = assay: as above; conditions: incubation time: 72 h
Procedure, shortened: as §2

SK-BR-3 [15] = conditions: 72 h
Procedure, shortened: (§3)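 After 72 h on 384-well plates pre-loaded with compound in 5 µl medium, breast cancer cell lines seeded in 20 µl were assayed for viability with 2.5 µl CellTiter-Blue at 37 °C for 2 h, read at 560/590 nm. Each plate was quality-checked by Z'-factor and normalised to vehicle and a positive kill control. EC50 comes from the fitted percent-inhibition dose-response curve, censored at the top concentration, and rows scoring zero for drug sensitivity were left out.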

MDA-MB-468 [16] = conditions: 72 h
Procedure, shortened: as §3

HCC1937 [17] = conditions: 72 h
Procedure, shortened: as §3

| Structure (SMILES) | drug sensitivity score (SK-BR-3 [1]) | drug sensitivity score (BT-549) | drug sensitivity score (MDA-MB-453) | drug sensitivity score (CAL-120 [2]) | drug sensitivity score (CAL-85-1) | drug sensitivity score (MDA-MB-436) | drug sensitivity score (HCC1599) | drug sensitivity score (HCC1937 [3]) | drug sensitivity score (CAL-148 [4]) | drug sensitivity score (MDA-MB-468 [5]) | drug sensitivity score (MFM-223 [6]) | drug sensitivity score (BT-474) | drug sensitivity score (MDA-MB-231) | drug sensitivity score (CAL-51) | drug sensitivity score (HDQ-P1 [7]) | drug sensitivity score (DU-4475) | drug sensitivity score (Hs578T [8]) | drug sensitivity score (HCC1143) | normalised viability (CAL-120 [9]; 0.1 nM) [%] | normalised viability (HCC1937 [10]; 0.1 nM) [%] | normalised viability (CAL-148 [11]; 0.1 nM) [%] | normalised viability (MFM-223 [12]; 0.1 nM) [%] | normalised viability (HDQ-P1 [13]; 0.1 nM) [%] | normalised viability (Hs578T [14]; 0.1 nM) [%] | EC50, CellTiter-Blue viability (SK-BR-3 [15]) [nM] | EC50, CellTiter-Blue viability (MDA-MB-468 [16]) [nM] | normalised viability (CAL-120 [9]; 0.025 nM) [%] | normalised viability (HCC1937 [10]; 0.025 nM) [%] | normalised viability (CAL-148 [11]; 0.025 nM) [%] | normalised viability (MFM-223 [12]; 0.025 nM) [%] | normalised viability (HDQ-P1 [13]; 0.025 nM) [%] | normalised viability (Hs578T [14]; 0.025 nM) [%] | EC50, CellTiter-Blue viability (HCC1937 [17]) [nM] | normalised viability (CAL-120 [9]; 1 nM) | normalised viability (HCC1937 [10]; 1 nM) | normalised viability (CAL-148 [11]; 1 nM) [%] | normalised viability (MFM-223 [12]; 1 nM) | normalised viability (HDQ-P1 [13]; 1 nM) | normalised viability (Hs578T [14]; 1 nM) |
| --- | --- | --- | --- | --- | --- | --- | --- | --- | --- | --- | --- | --- | --- | --- | --- | --- | --- | --- | --- | --- | --- | --- | --- | --- | --- | --- | --- | --- | --- | --- | --- | --- | --- | --- | --- | --- | --- | --- | --- |
| C=CC(=O)N1CCC[C@@H](n2nc(-c3ccc(Oc4ccccc4)cc3)c3c(N)ncnc32)C1 | 18.7 | 0 | 14.8 | 0 | 5.07 | 0 | 0 | 0 | 0 | 3.83 | 0 | 12.7 | 0 | 0 | 1.18 | 0 | 0 | 0 | 81.3 | 93.3 | 102 | 99.8 | 105 | 119 | 8.82 | 71.1 |  |  |  |  |  |  |  |  |  |  |  |  |  |
| CC(=O)Nc1cccc(-n2c(=O)n(C3CC3)c(=O)c3c(Nc4ccc(I)cc4F)n(C)c(=O)c(C)c32)c1 | 0 | 0 | 6.65 | 8.88 | 12.1 | 0 | 8.87 | 0 | 0 | 2.67 | 0 | 0 | 21.7 | 7.72 | 12.7 | 39.6 | 0 | 9.72 |  |  |  |  |  |  |  | 35.7 | 104 | 93.7 | 107 | 105 | 105 | 113 |  |  |  |  |  |  |  |
| CC[C@@H]1C(=O)N(C)c2cnc(Nc3ccc(C(=O)NC4CCN(C)CC4)cc3OC)nc2N1C1CCCC1 [BI 2536] | 25.6 | 21.3 | 23 | 21.6 | 14.7 | 7.37 | 0 | 22.8 | 19.7 | 15 | 19 | 0 | 16.4 | 20.7 | 5.37 | 19.3 | 8.18 | 13.2 | 91.8 | 86.5 | 98 | 99 | 94 | 122 | 2.63 | 3.48 |  |  |  |  |  |  | 3.79 |  |  |  |  |  |  |
| CC[C@H](Nc1ncnc2[nH]cnc12)c1nc2cccc(F)c2c(=O)n1-c1ccccc1 [CAL-101] | 2.96 | 1.74 | 2.74 | 1.02 | 0 | 0 | 3.9 | 0 | 0 | 2.46 | 0 | 0 | 0 | 0 | 2.23 | 2.91 | 0 | 1.48 |  |  |  |  |  |  | 2160 | 2380 |  |  |  |  |  |  |  | 104% | 121% | 91.3 | 91.1% | 89.5% | 118% |
| C=CC(=O)Nc1cc2c(Nc3ccc(F)c(Cl)c3)ncnc2cc1OCCCN1CCOCC1 [Canertinib] | 27.4 | 6.86 | 15.9 | 6.69 | 11.9 | 11.6 | 1.14 | 7.24 | 7.47 | 13.9 | 5.96 | 18.5 | 8.24 | 3.66 | 14 | 2.6 | 4.83 | 3.63 |  |  |  |  |  |  | 16.6 | 571 |  |  |  |  |  |  | 2250 | 84.4% | 90.6% | 99.5 | 92.8% | 88.3% | 103% |
| Nc1ncn([C@H]2C[C@H](O)[C@@H](CO)O2)c(=O)n1 [Decitabine] | 2.77 and 1.44 | 4.59 and 2.2 |  | 0 | 0 |  |  | 3.95 and 4.59 |  | 21.5 and 21.6 | 0 |  |  |  | 0 | 4.16 and 2.07 | 0 | 5.09 and 8.28 |  |  |  |  |  |  | 3470 | 40.4 |  |  |  |  |  |  | 737 | 84.8% and 82.6% | 95.8% and 102% |  | 82.4% and 104% | 114% and 108% | 90.4% and 111% |
| Nc1ccccc1NC(=O)c1ccc(CNC(=O)OCc2cccnc2)cc1 [Entinostat] | 12.4 | 0 | 5.77 | 8.06 | 5.41 | 0 | 4.98 | 4.61 | 5.16 | 7.4 | 5.32 | 3.64 | 4.99 | 1.7 | 0 | 2.81 | 2.77 | 2.98 |  |  |  |  |  |  | 777 | 1520 |  |  |  |  |  |  | 1170 | 83.6% | 80.4% | 95.8 | 98.7% | 113% | 118% |

Source: the supplement of paper PMC4862054
